These results are taken from ChEMBL document CHEMBL1137217, “Further structurally constrained analogues of cis-(6-benzhydrylpiperidin-3-yl)benzylamine with elucidation of bioactive conformation: discovery of 1,4-diazabicyclo[3.3.1]nonane derivatives and evaluation of their biological properties for the monoamine transporters” (J Med Chem, 2004).

The target in test [1] is Norepinephrine transporter (Rattus norvegicus, UniProt Q9WTR4). Put plainly: Inhibition of [3H]nisoxetine binding to norepinephrine transporter of rat cerebral cortex. Type of test: tissue-based.
The target in test [2] is T1, Sodium-dependent dopamine transporter (Rattus norvegicus, UniProt P23977). Put plainly: Inhibition of [3H]WIN-35428 binding to dopamine transporter of rat striatum. Type of test: tissue-based.
The target in test [3] is T1, Sodium-dependent dopamine transporter. Briefly: Concentration required to inhibit [3H]DA (dopamine) uptake into rat striatal synaptosomes. Type of test: functional, subcellular, Brain.
Test [4] deals with Sodium-dependent serotonin transporter (Rattus norvegicus, UniProt P31652). Put plainly: Inhibition of [3H]citalopram binding to serotonin transporter of rat cerebral cortex. It is filed as tissue-based.
For test [5], the target named is Sodium-dependent dopamine transporter (Rattus norvegicus) (UniProt P23977). Briefly: Ratio of IC50 for [3H]DA uptake to and dopamine transporter binding.
Test [6] addresses Monoamine transporters; serotonin & dopamine (Rattus norvegicus) (UniProt P31652+P23977). Put plainly: Relative binding affinity for serotonin and dopamine transporters, ratio of IC50. It is filed as protein assay.
Test [7] concerns the target Monoamine transporters; Norepininephrine & dopamine (Rattus norvegicus) (UniProt P23977+Q9WTR4). Put plainly: Relative binding affinity for norepinephrine and dopamine transporter, ratio of IC50. It is filed as protein assay.

Chain of Norepinephrine transporter (Q9WTR4 whole entry): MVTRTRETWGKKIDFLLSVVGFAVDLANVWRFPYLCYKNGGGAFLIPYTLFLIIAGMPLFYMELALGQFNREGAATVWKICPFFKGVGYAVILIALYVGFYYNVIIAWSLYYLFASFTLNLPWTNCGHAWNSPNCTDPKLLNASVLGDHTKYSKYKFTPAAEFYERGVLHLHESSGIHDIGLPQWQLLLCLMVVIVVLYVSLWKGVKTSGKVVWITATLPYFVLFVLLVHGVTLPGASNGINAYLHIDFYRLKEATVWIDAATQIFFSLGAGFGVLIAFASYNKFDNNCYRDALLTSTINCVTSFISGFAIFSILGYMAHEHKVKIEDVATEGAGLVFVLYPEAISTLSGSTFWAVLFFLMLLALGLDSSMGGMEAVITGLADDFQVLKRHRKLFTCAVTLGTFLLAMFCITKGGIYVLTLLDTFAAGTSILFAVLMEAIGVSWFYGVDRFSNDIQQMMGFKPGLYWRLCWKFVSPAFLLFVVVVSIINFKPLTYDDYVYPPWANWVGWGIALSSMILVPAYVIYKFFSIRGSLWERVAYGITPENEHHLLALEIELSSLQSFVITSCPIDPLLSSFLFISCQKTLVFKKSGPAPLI
Chain of Sodium-dependent serotonin transporter (P31652 whole entry): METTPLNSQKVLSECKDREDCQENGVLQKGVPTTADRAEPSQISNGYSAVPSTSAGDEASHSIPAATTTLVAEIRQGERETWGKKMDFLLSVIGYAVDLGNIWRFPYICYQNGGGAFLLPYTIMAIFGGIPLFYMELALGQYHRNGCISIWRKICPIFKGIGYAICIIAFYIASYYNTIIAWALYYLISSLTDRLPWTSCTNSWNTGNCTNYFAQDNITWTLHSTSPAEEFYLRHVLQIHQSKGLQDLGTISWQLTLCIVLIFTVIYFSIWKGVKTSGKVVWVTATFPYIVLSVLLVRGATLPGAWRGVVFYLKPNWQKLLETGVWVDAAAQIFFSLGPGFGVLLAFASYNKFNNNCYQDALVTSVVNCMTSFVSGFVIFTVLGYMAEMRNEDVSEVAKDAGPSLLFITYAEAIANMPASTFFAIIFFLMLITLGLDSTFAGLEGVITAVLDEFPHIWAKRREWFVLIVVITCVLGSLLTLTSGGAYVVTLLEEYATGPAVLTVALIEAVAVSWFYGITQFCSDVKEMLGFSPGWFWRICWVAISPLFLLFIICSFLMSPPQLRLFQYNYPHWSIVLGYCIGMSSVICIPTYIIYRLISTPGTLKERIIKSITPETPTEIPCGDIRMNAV
Chain of Sodium-dependent dopamine transporter (Rattus norvegicus) (P23977 whole entry): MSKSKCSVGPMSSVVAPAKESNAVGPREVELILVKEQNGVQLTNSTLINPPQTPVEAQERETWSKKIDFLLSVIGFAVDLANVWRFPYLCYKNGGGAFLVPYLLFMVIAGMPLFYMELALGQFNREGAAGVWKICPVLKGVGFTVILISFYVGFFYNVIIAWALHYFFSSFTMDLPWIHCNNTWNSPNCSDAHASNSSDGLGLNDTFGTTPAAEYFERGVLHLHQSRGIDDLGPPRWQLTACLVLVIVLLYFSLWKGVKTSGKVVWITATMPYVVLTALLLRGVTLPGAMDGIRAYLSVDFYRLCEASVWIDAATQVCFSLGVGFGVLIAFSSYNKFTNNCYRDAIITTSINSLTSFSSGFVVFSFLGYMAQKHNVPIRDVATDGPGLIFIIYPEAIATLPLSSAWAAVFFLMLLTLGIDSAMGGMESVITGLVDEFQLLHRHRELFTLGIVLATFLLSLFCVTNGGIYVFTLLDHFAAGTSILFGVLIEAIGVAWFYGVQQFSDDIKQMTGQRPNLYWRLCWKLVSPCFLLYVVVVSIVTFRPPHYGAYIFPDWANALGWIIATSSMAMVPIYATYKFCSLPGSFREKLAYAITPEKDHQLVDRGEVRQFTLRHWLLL
Chain of Monoamine transporters; serotonin & dopamine (Rattus norvegicus) (P23977 whole entry, looked up): as the sequence (P23977 whole entry) above
Chain of Monoamine transporters; serotonin & dopamine (Rattus norvegicus) (P31652 whole entry, looked up): as the sequence (P31652 whole entry) above
T1 sequence (P23977 whole entry): as the sequence (P23977 whole entry) above

For `N#Cc1ccc(CNC2CCC(C(c3ccccc3)c3ccccc3)NC2)cc1` (stereo unspecified), the IC50 (usually the point on the concentration scale where inhibition reaches its midpoint) was found to be 1.67 µM in test [1], 11.2 nM in test [2], 9.1 nM in test [3] and 0.434 µM in test [4]. The Selectivity came to 0.8 in test [5], 38 in test [6] and 148 in test [7].
Regarding `Fc1ccc(CNC2CCC(C(c3ccccc3)c3ccccc3)N(Cc3ccc(F)cc3)C2)cc1` (stereo unspecified), the half-inhibitory concentration (IC50) in test [1] worked out at 12.6 µM; in test [2], 1240 nM; in test [4], 18.9 µM. Moreover, the Selectivity is 10 in test [6] and 12 in test [7].
`COc1ccc(CN2CCN3C[C@@H]2CC[C@H]3C(c2ccccc2)c2ccccc2)cc1`: the IC50 in test [1] is > 10 µM; in test [2], 22.5 nM; in test [3] it was 18.4 nM; in test [4] it was 8.65 µM. Moreover, the figures for the Selectivity in test [5], in test [6] and in test [7] were 0.8, 384 and > 444, respectively.
Turning to `CN1CCN2CC1CCC2C(c1ccccc1)c1ccccc1` (stereo unspecified), the IC50 in test [1] came out at 60.1 µM; in test [2] it was 4710 nM; in test [4] it was 157 µM. Besides, the Selectivity in test [6] came out at 33; in test [7] it was 13.
For `CN(Cc1ccc(F)cc1)C1CCC(C(c2ccccc2)c2ccccc2)N(C)C1` (stereo unspecified) the same measures were 7 µM, 225 nM, 2.36 µM, 10 and 31.
Take `COc1ccc(CNC2CCC(C(c3ccccc3)c3ccccc3)NC2)cc1` (stereo unspecified): the IC50 in test [1] stood at 1.11 µM; in test [2] it was 47.5 nM; in test [3], 40.5 nM; in test [4], 1.04 µM. The Selectivity in test [5] was determined as 0.85; in test [6], 22; in test [7], 23.
For `Fc1ccc(CNC2CCC(C(c3ccccc3)c3ccccc3)NC2)cc1` (stereo unspecified), the half-maximal inhibitory concentration (IC50) was determined as 1.42 µM in test [1], 33.8 nM in test [2] and 53.8 nM in test [3].
With `O=S(=O)(Nc1ccc(CN2CCN3CC2CCC3C(c2ccccc2)c2ccccc2)cc1)c1ccc(Cl)cc1` (stereo unspecified), the IC50 turned out to be 3.48 µM in test [1], 371 nM in test [2] and 4.13 µM in test [4]. For the same molecule, the values for the Selectivity in test [6] and in test [7] were 11 and 9, respectively.
Turning to `COc1ccc(CN2CCN3C[C@H]2CC[C@@H]3C(c2ccccc2)c2ccccc2)cc1`, the IC50 in test [1] is > 10 µM; in test [2], 329 nM; in test [3], 269 nM; in test [4], 6.63 µM. The values for the Selectivity in test [5], in test [6] and in test [7] were 0.8, 20 and > 30, respectively.
Regarding `Fc1ccc(CCN2CCN3CC2CCC3C(c2ccccc2)c2ccccc2)cc1` (stereo unspecified), the IC50 is > 10 µM in test [1], 565 nM in test [2] and 2.55 µM in test [4]. Besides, the Selectivity in test [6] is 4; in test [7], > 18.
